Assay results: the NIST ThermoML archive (doi:10.1016/j.tca.2015.02.020)

Experiment: molar heat capacity at constant pressure; xn = mol fraction of the nth substance listed
Details: 101 kPa, Liquid, Small sample (50 mg) DSC

NCCO [2-aminoethan-1-ol] + O
Details	molar heat capacity at constant pressure [J/K/mol]
250.9 K, x1 = 0.23	86.28
250.9 K, x1 = 0.31	90.02
251.37 K, x1 = 0.19	82.79
253.23 K, x1 = 0.19	80.95
254.22 K, x1 = 0.31	91.28
254.23 K, x1 = 0.23	87.11
254.7 K, x1 = 0.19	84.1
254.97 K, x1 = 0.23	82.37
254.98 K, x1 = 0.31	88.14
255.33 K, x1 = 0.73	124.13
257.98 K, x1 = 0.19	81.74
259.72 K, x1 = 0.23	83.48
259.72 K, x1 = 0.31	89.39
260.08 K, x1 = 0.73	126.11
260.88 K, x1 = 0.23	89.07
260.88 K, x1 = 0.31	93.16
261.35 K, x1 = 0.19	86.45
262.73 K, x1 = 0.19	82.79
264.2 K, x1 = 0.23	90.18
264.2 K, x1 = 0.31	94.1
264.47 K, x1 = 0.23	84.88
264.48 K, x1 = 0.31	90.96
264.67 K, x1 = 0.19	87.5
264.83 K, x1 = 0.73	128.09
267.48 K, x1 = 0.19	83.57
269.23 K, x1 = 0.23	86.28
269.23 K, x1 = 0.31	92.22
269.58 K, x1 = 0.73	130.07
270.7 K, x1 = 0.73	140.45
270.86 K, x1 = 0.23	91.58
270.86 K, x1 = 0.31	95.98
271.34 K, x1 = 0.19	89.86
272.24 K, x1 = 0.19	84.36
274.02 K, x1 = 0.23	87.67
274.02 K, x1 = 0.31	93.79
274.07 K, x1 = 0.73	140.95
274.23 K, x1 = 0.23	92.42
274.23 K, x1 = 0.31	96.61
274.39 K, x1 = 0.73	132.04
274.73 K, x1 = 0.19	90.65
277.12 K, x1 = 0.19	84.88
278.94 K, x1 = 0.23	88.79
278.94 K, x1 = 0.31	95.04
279.3 K, x1 = 0.73	133.53
280.95 K, x1 = 0.73	141.44
281.11 K, x1 = 0.23	93.26
281.11 K, x1 = 0.31	97.86
281.61 K, x1 = 0.19	91.69
282.05 K, x1 = 0.19	85.67
283.85 K, x1 = 0.23	89.91
283.85 K, x1 = 0.31	96.29
284.22 K, x1 = 0.73	134.02
284.4 K, x1 = 0.73	141.44
284.56 K, x1 = 0.23	93.26
284.56 K, x1 = 0.31	97.86
285.05 K, x1 = 0.19	91.96
